{"source": "patent US20230295096A1", "about": "“PYRAZOLE CARBOXAMIDE COMPOUNDS FOR TREATMENT OF HBV” (ASSEMBLY BIOSCIENCES, INC., priority 2020, published 2023)"}
{"test_system": "HBV", "assay": "Viral load production from HepAD38 cells, qPCR of the HBV core sequence in supernatant", "assay_type": "cell-based", "conditions": "HepAD38 cells, 5 days, HBV DNA in supernatant by qPCR; Table 1 ranges; read-out: Activity (viral load lowering EC50)", "experimental": "(§1) HepAD38 cells grown in a T-150 flask (Corning, cat#: 430825) with Growth Medium (DMEM/F12 (1:1) (Hyclone, cat#: SH30023.02), 1X Pen/Strep (Invitrogen, cat#: 15140-122), 10% FBS (Tissue Culture Biologics, cat#: 101), 250 µg/mL G418 (Alfa Aesar, cat#: J62671), 1 µg/mL Tetracycline (Teknova, cat#: T3320)) were detached with 0.25% trypsin-EDTA (Invitrogen, cat#: 25200-056). Tetracycline-free treatment medium (15 mL DMEM/F12 (1:1) 1× Pen/step, with 2% FBS, Tet-system approved (Clontech, cat#: 631106) were then added to mix, transferred into a 50 ml conical tube (Falcon, cat#: 21008-918,) and spun at 1300 rpm for 5 min. Pelleted cells were then re-suspended/washed with 50 mL of 1X DPBS (Invitrogen, cat#: 14190-136) 2 times and 50 mL treatment medium twice. HepAD38 cells were then re-suspended with 10 mL of treatment medium, syringed and counted. Wells of 96-well clear bottom TC plate (Corning, cat#: 3904,) were seeded at 50.000 cells/well in 180 µL of treatment medium, and 20 µL of either 10% DMSO (Sigma, cat#: D4540) as controls or a 10X solution of test compounds in 10% DMSO in treatment media was added for a final compound concentration starting at 10 µM, and plates were incubated in 5% CO2 incubator at 37° C. for 5 days.\n(§2) Subsequently viral load production was assayed by quantitative PCR (qPCR) of the HBV core sequence. PCR reaction mixture containing forward primers HBV-f 5′-CTGTGCCTTGGGTGGCTTT-3′ (IDT DNA), Reverse primers HBV-r 5′-[…]-3′ (IDT DNA), Fluorescent TaqMan^tm Probes HBV-probe 5′-FAM/AGCTCCAAA/ZEN/[…]/3IABkFQ-3′ (IDT DNA), 10 µL/well of PerfeCTa® qPCR ToughMix® (Quanta Biosciences, Cat#: 95114-05 K), and 6 µL/well of DEPC water (Alfa Aesar, cat#: J62087) was prepared. Four µL of supernatant was added to 16 µL of the reaction mixture in a qPCR plate (Applied Biosytems, Cat#: 4309849), sealed with a film (Applied Biosystems, Cat#: 4311971), centrifuged for a few seconds, and subsequently run on an Applied Biosystems VIIA7. The PCR mixture was incubated at 45° C. for 5 min, then 95° C. for 10 min, followed by 40 cycles of 10 seconds at 95° C. and 20 seconds at 60° C. Viral load was quantified against known HBV DNA standards by using ViiA™ 7 Software. Viral load in the supernatant from wells with treated cells were compared against viral load in supernatant from DMSO control wells (≥ 3 per plate). Cell viability assay was performed with CellTiter-Glo Luminescent Cell Viability Assay (Promega, cat#: G7573) with modification. Mixed appropriate amount of CellTiter-Glo (CTG) 1X DPBS in a 1:1 ratio, added 100 uL of the mixture to each well followed completely removal of all supernatant in each well without touching cell surface. Incubated the plate at room temperature for 10 min on an orbital shaker, and then read the plate with a plate reader (TECAN M1000 or Envision). EC50 or CC50 values were calculated through curve-fitting of the four-parameter nonlinear-logistic-regression model (GraphPad Prism or Dotmatics). CC50 values were all >10 µM.", "units": {"EC50": "nM"}}
{"molecule": "3-Amino-N-(3-chloro-4-fluorophenyl)-5-(5-hydroxy-5-(1-methyl-1H-imidazol-4-yl)octahydropentalen-2-yl)-2λ^2-pyrazole-4-carboxamide [Example 20]", "EC50": "< 10"}
{"molecule": "Cn1nc(C2CC3CC(CNC(=O)C4CC4)CC3C2)c(C(=O)Nc2ccc(F)c(Cl)c2)c1N", "note": "(single isomer, unassigned) [Example 42, 5-Amino-N-(3-chloro-4-fluorophenyl)-3-(5-(cyclopropanecarboxamidomethyl)octahydropentalen-2-yl)-1-methyl-1H-pyrazole-4-carboxamide]", "EC50": "< 10"}
{"molecule": "CN(C)C(=O)NCC1CC2CC(c3nn(C)c(N)c3C(=O)Nc3ccc(F)c(Cl)c3)CC2C1", "note": "(single isomer, unassigned) [Example 43, 5-Amino-N-(3-chloro-4-fluorophenyl)-3-(5-((3,3-dimethylureido)methyl)octahydropentalen-2-yl)-1-methyl-1H-pyrazole-4-carboxamide]", "EC50": "< 10"}
{"molecule": "Cn1nc(C2CC3CC(CNC(=O)C(C)(C)O)CC3C2)c(C(=O)Nc2ccc(F)c(Cl)c2)c1N", "note": "(single isomer, unassigned) [Example 44, 5-Amino-N-(3-chloro-4-fluorophenyl)-3-(5-((2-hydroxy-2-methylpropanamido)methyl)octahydropentalen-2-yl)-1-methyl-1H-pyrazole-4-carboxamide]", "EC50": "< 10"}
{"molecule": "C[C@@H](NC(=O)C1CC2CC(c3nn(C)c(N)c3C(=O)Nc3ccc(F)c(Cl)c3)CC2C1)C(F)(F)F", "note": "(single isomer, unassigned) [Example 102]", "EC50": "10 to 50"}
{"molecule": "CC(NC(=O)N1CC2CC(c3nn(C)c(N)c3C(=O)Nc3ccc(F)c(Cl)c3)CC2C1)C(F)(F)F", "note": "(single isomer, unassigned) [Example 129, 5-(5-Amino-4-((3-chloro-4-fluorophenyl)carbamoyl)-1-methyl-1H-pyrazol-3-yl)-N-(1,1,1-trifluoropropan-2-yl)hexahydrocyclopenta[c]pyrrole-2(1H)-carboxamide]", "EC50": "50 to 500"}
{"molecule": "Cn1nc(C2CC3CC(O)(CNc4ncc(C(F)F)cn4)CC3C2)c(C(=O)Nc2ccc(F)c(Cl)c2)c1N", "note": "(single isomer, unassigned) [Example 202A]", "EC50": "10 to 50"}
{"molecule": "Cn1nc(C2CC3CC(O)(CNc4ncc(C(F)F)cn4)CC3C2)c(C(=O)Nc2ccc(F)c(Cl)c2)c1N", "note": "(single isomer, unassigned) [Example 202B]", "EC50": "50 to 500"}
{"molecule": "Cn1nc(C(F)(F)F)cc1NCC1(O)CC2CC(c3nn(C)c(N)c3C(=O)Nc3ccc(F)c(Cl)c3)CC2C1", "note": "(single isomer, unassigned) [Example 203B]", "EC50": "10 to 50"}
{"molecule": "Cn1nc(C2CC3CC(O)(CNc4cc(N)ncn4)CC3C2)c(C(=O)Nc2ccc(F)c(Cl)c2)c1N", "note": "(single isomer, unassigned) [Example 205A]", "EC50": "< 10"}
{"molecule": "Cn1nc(C2CC3CC(O)(CNc4cc(N)ncn4)CC3C2)c(C(=O)Nc2ccc(F)c(Cl)c2)c1N", "note": "(single isomer, unassigned) [Example 205B]", "EC50": "50 to 500"}
{"test_system": "HBV", "assay": "Viral load production from HepAD38 cells, qPCR of the HBV core sequence in supernatant", "assay_type": "cell-based", "conditions": "HepAD38 cells, 5 days, HBV DNA in supernatant by qPCR; Table 2 ranges; read-out: VL HepAD38 EC50 range", "experimental": "as §1, §2", "units": {"EC50": "nM"}}
{"molecule": "Cn1nc(C2CC3CC(O)C(c4ccccc4)C3C2)c(C(=O)Nc2ccc(F)c(Cl)c2)c1N", "note": "(single isomer, unassigned) [Example 142, 5-Amino-N-(3-chloro-4-fluorophenyl)-3-(5-hydroxy-4-phenyloctahydropentalen-2-yl)-1-methyl-1H-pyrazole-4-carboxamide]", "EC50": "< 100"}
{"molecule": "Cn1nc(C2CC3CC(c4ccccc4)C(O)C3C2)c(C(=O)Nc2ccc(F)c(Cl)c2)c1N", "note": "(single isomer, unassigned) [Example 143, 5-Amino-N-(3-chloro-4-fluorophenyl)-3-(4-hydroxy-5-phenyloctahydropentalen-2-yl)-1-methyl-1H-pyrazole-4-carboxamide]", "EC50": "< 100"}
{"molecule": "Cn1nc(C2CC3CC(c4ccccc4)C(O)C3C2)c(C(=O)Nc2ccc(F)c(Cl)c2)c1N", "note": "(single isomer, unassigned) [Example 144, 5-Amino-N-(3-chloro-4-fluorophenyl)-3-(4-hydroxy-5-phenyloctahydropentalen-2-yl)-1-methyl-1H-pyrazole-4-carboxamide]", "EC50": "< 100"}
{"test_system": "HBV", "assay": "Viral load production from HepAD38 cells, qPCR of the HBV core sequence in supernatant", "assay_type": "cell-based", "conditions": "Hepatitis B virus, HePAD38, 120 h, HepAD38 cells, 5 days, HBV DNA in supernatant by qPCR; Table 1 ranges; read-out: Activity (viral load lowering EC50)", "experimental": "as §1, §2", "units": {"EC50": "nM"}}
{"molecule": "Cn1nc(C2CC3CC(CNC(=O)C(C)(C)O)CC3C2)c(C(=O)Nc2ccc(F)c(Cl)c2)c1N", "note": "(single isomer, unassigned) [Example 39, 5-Amino-N-(3-chloro-4-fluorophenyl)-3-(5-((2-hydroxy-2-methylpropanamido)methyl)octahydropentalen-2-yl)-1-methyl-1H-pyrazole-4-carboxamide]", "EC50": "< 10"}
{"molecule": "Cn1nc(C2CC3CC(CNC(=O)C4CC4)CC3C2)c(C(=O)Nc2ccc(F)c(Cl)c2)c1N", "note": "(single isomer, unassigned) [Example 40, 5-Amino-N-(3-chloro-4-fluorophenyl)-3-(5-(cyclopropanecarboxamidomethyl)octahydropentalen-2-yl)-1-methyl-1H-pyrazole-4-carboxamide]", "EC50": "< 10"}
{"molecule": "CN(C)C(=O)NCC1CC2CC(c3nn(C)c(N)c3C(=O)Nc3ccc(F)c(Cl)c3)CC2C1", "note": "(single isomer, unassigned) [Example 41, 5-Amino-N-(3-chloro-4-fluorophenyl)-3-(5-((3,3-dimethylureido)methyl)octahydropentalen-2-yl)-1-methyl-1H-pyrazole-4-carboxamide]", "EC50": "< 10"}
{"molecule": "C[C@@H](NC(=O)C1CC2CC(c3nn(C)c(N)c3C(=O)Nc3ccc(F)c(Cl)c3)CC2C1)C(F)(F)F", "note": "(single isomer, unassigned) [Example 101]", "EC50": "10 to 50"}
{"molecule": "C[C@H](NC(=O)C1CC2CC(c3nn(C)c(N)c3C(=O)Nc3ccc(F)c(Cl)c3)CC2C1)C(F)(F)F", "note": "(single isomer, unassigned) [Example 103]", "EC50": "10 to 50"}
{"molecule": "CC(NC(=O)N1CC2CC(c3nn(C)c(N)c3C(=O)Nc3ccc(F)c(Cl)c3)CC2C1)C(F)(F)F", "note": "(single isomer, unassigned) [Example 128, 5-(5-Amino-4-((3-chloro-4-fluorophenyl)carbamoyl)-1-methyl-1H-pyrazol-3-yl)-N-(1,1,1-trifluoropropan-2-yl)hexahydrocyclopenta[c]pyrrole-2(1H)-carboxamide]", "EC50": "50 to 500"}
{"molecule": "Cn1nc(C(F)(F)F)cc1NCC1(O)CC2CC(c3nn(C)c(N)c3C(=O)Nc3ccc(F)c(Cl)c3)CC2C1", "note": "(single isomer, unassigned) [Example 203A]", "EC50": "< 10"}
{"molecule": "Cn1nc([N+](=O)[O-])cc1C1(O)CC2CC(c3nn(C)c(N)c3C(=O)Nc3ccc(F)c(Cl)c3)CC2C1", "note": "[Compd. 4-2, 5-amino-N-(3-chloro-4-fluorophenyl)-3-((2 s,3aR,5r,6aS)-5-hydroxy-5-(1-methyl-3-nitro-1H-pyrazol-5-yl)octahydropentalen-2-yl)-1-methyl-1H-pyrazole-4-carboxamide]", "EC50": "< 10"}
{"test_system": "HBV", "assay": "Viral load production from HepAD38 cells, qPCR of the HBV core sequence in supernatant", "assay_type": "cell-based", "conditions": "Hepatitis B virus, HePAD38, 120 h, HepAD38 cells, 5 days, HBV DNA in supernatant by qPCR; Table 2 ranges; read-out: VL HepAD38 EC50 range", "experimental": "as §1, §2", "units": {"EC50": "nM"}}
{"molecule": "Cn1nc(C2CC3CC(O)C(c4ccccc4)C3C2)c(C(=O)Nc2ccc(F)c(Cl)c2)c1N", "note": "(single isomer, unassigned) [Example 141, 5-Amino-N-(3-chloro-4-fluorophenyl)-3-(5-hydroxy-4-phenyloctahydropentalen-2-yl)-1-methyl-1H-pyrazole-4-carboxamide]", "EC50": "< 100"}
{"molecule": "Cn1nc(C2CC3CC(c4ccccc4)C(O)C3C2)c(C(=O)Nc2ccc(F)c(Cl)c2)c1N", "note": "(single isomer, unassigned) [Example 145, 5-Amino-N-(3-chloro-4-fluorophenyl)-3-(4-hydroxy-5-phenyloctahydropentalen-2-yl)-1-methyl-1H-pyrazole-4-carboxamide]", "EC50": "< 100"}
